Reference: patent EP0738149B1 (priority 1994, dated 1995)
Structures can show the parent of a compound that is named as a salt.

Experiments:
[1] = tested on: mice; assay: Maximal electroshock (MES) model in mice, i.p.;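 as to all read-outs here: Electroshock-induced convulsion model serving to demonstrate antiepileptic efficacy against generalized and partial seizures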; assay type: in vivo; conditions: for ED50: Mus musculus, ip, Table 15
[2] = Neurotoxicity in mice (rotorod ataxia test), i.p.; conditions: mouse, in vivo, ip, MICE TD50, mice
Experimental: (§1) Neurotoxicity of the claimed agents was also assessed in mice (i.p. administration) by the rotorod ataxia test and/or in rats (p.o. administration) by positional sense test and gait stance test. […] The term quantitating the neurotoxicity is the medial neurological toxic dose (TD50), was determined in the above tests.

[3] = tested on: rats; assay: Maximal electroshock (MES) model in rats, p.o.;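 also: rat MES model gauging antiepileptic efficacy versus generalized and partial seizures after oral dosing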; assay type: in vivo; conditions: rats, p.o.; Table 15
[4] = in vivo; conditions: rat, in vivo, po
Experimental: as §1

[5] = tested on: male ICR albino mice; assay: Hypobaric hypoxia survival time in mice; assay type: in vivo
Experimental: Dessicator B was disconnected and allowed to equilibrate with room air whilst dessicator A was evacuated to a pressure of 100mmHg. […] The survival time from the moment of induction of hypoxia to the time of cessation of respiration was recorded for each mouse for a maximum of 15 minutes after which time room air was reintroduced to dessicator B. Survivors were monitored for signs of lethargy or vitality.
Effect of drug treatment was assessed as the percent of the survival time of the drug treated group with respect to the saline injected or vehicle injected control group. Control groups were run twice, before and after each experimental group and consisted of 12-16 mice in groups of 4 mice. Each experimental group always consisted of 4 mice to ensure a constant residual volume of oxygen in all tests. The effect of each dose of test drug was determined in duplicate i.e. two groups of 4 mice.
All drugs were administered intra-peritoneally at the dose indicated one hour prior to exposure to hypoxia.

[6] = tested on: rats; assay: Neurotoxicity in rats (positional sense test and gait stance test), p.o.; conditions: rats, p.o.; Table 16
Experimental: as §1

[7] = tested on: Male mongolian gerbils; assay: Global brain ischemia in gerbils (CA1 pyramidal neurons); assay type: in vivo; conditions: 3 injections, fraction of hippocampi protected from ischemia, 14 days post-ischemia
Experimental: Each artery was clamped for 5 minutes with aneurysm clips to produce global brain ischemia. The anesthesia was discontinued upon clamping. After 5 minutes the clamps were removed and the wound closed with skin clips.
For treatment, the test compound or vehicle were injected intra-peritoneally (ip) in a volume of 50 microliters of solvent per 10g body weight. The first injection was given two minutes after clamp removal, and thereafter daily for the next 2 post-operative days (total of 3 injections).
Seven groups each of 4-8 animals were compared: • I. Control; (sham- or unoperated and saline treated), • II. Vehicle treated, unoperated (when solvent is other than saline), • III. Ischemia - untreated or saline treated), • IV. Ischemia - vehicle treated (when solvent is other than saline), • V. Ischemia - Test compound treated, one sub-group per concentration tested, • VI. Ischemia and pentobarbital (40 mg/kg) as positive control).
Analysis of neuronal damage was performed 14 days post-ischemia by counting pyramidal neurons throughout the CA1 layer of the anterior hippocampus in […] thick (paraffin) coronal brain sections stained with hematoxylin and erosin.
Percent Protection values represent the fraction of hippocampi protected from ischemia in a group of animals treated with the stated dose of compound.

[8] = tested on: mechanically dissociated neonatal rat cerebellum; assay: Reversal of NMDA induced cell death in cultures of neonatal rat cerebellum; assay type: cell-based; conditions: for SURVIVING CELL IN CULTURE: relative to control (100%)
Experimental: The cerebellum was aseptically dissociated from 6 or 7-day old rat pups and placed in a 15ml sterile plastic conical tube containing 3ml of Dulbecco's modified Eagle's medium (DMEM) with a high glucose concentration ([…]) and 2mM (v/v) L-glutamine and an antibiotic antimitotic mixture. The cerebella were then dissociated after 20-25 passages through a sterile 13 gauge, 10cm long stainless steel needle attached to a 5ml syringe with an inserted 45 micrometer pore nylon sieve. The dissociated cells were centrifuged at 200g for 5 minutes. The supernatant was discarded and the cells resuspended in medium enriched with 15% (v/v) heat inactivated fetal calf serum. Cell viability was determined by the tryptan blue exclusion test.
Cells were plated at a density of 200/mm^2 on poly-L-lysine coated surfaces. Poly-L-lysine coated glass coverslips were prepared at least one hour in advance of plating by immersing sterile coverslips in sterile distilled water solution containing 15 microgram/ml poly-L-lysine, and washing in sterile water just prior to use. The plated cells were covered with enriched medium and incubated at 37°C in an atmosphere of 5% CO2 in air and 97% humidity. After three days in culture, the media was replaced with media containing the desired test compound. Each test compound was tested in duplicate. Toxic-dose response was determined for each compound.
Four groups were run in each set of experiments; • I. Control, consisting of enriched media alone, • II. N-methyl-D-aspartate (NMDA, 1mM for 3 hours) as the cytotoxic challenge, • III. Test compound plus NMDA, and • IV. Positive control, spermine(0.01 micromoles) plus NMDA.
Nerve cell survival was evaluated by phase contrast microscopy and tryptan blue staining after 24 hours.
Surviving cells in culture are measured relative to control (100%), as described above. Percent protection is the Cell Survival for the test compound minus the NMDA effect. Thus, maximal protection is 100% minus 30% NMDA effect i.e. […]. The Effective Protection was calculated as the percent of the Percent Protection (X) divided by the maximal protection value (e.g. X x 100/70).

[9] = 50 mg/kg ip one hour prior to hypoxia
[10] = 100 mg/kg ip one hour prior to hypoxia
[11] = positive control, 0.01 micromoles plus NMDA

SMILES: c1ccc2c(c1)CCC2NC1CCc2ccccc21 (racemic) [Example 43, (rac)-M,N-Di-(1-indanyl)amine.HCl]
- ED50 [1]: < 100 mg/kg
- TD50 ([2]; Table 15): < 100 mg/kg
- RATS MES 50 [3]: <50 mg/kg
- TD50 [4]: > 50 mg/kg

SMILES: CN1C(=O)CN=C(c2ccccc2)c2cc(Cl)ccc21 [Diazepam, diazepam, reference compound]
- PROTECTION % OF RESPECTIVE CONTROL ([5]; 5 mg/kg ip 0.5 hour prior to hypoxia): 249±166 % OF RESPECTIVE CONTROL
- PROTECTION % OF RESPECTIVE CONTROL ([5]; 10 mg/kg ip 0.5 hour prior to hypoxia): 430±59 % OF RESPECTIVE CONTROL

SMILES: CN[C@H]1CCc2ccccc21 [Example 14, (S)-N-Methyl-1-aminoindan.HCl]
- TD50 ([2]; Table 15): 100 mg/kg
- TD50 ([2]; Table 16): 100 mg/kg
- RATS TD50 [6]: >142 mg/kg
- TD50 [4]: > 142 mg/kg

SMILES: NC1Cc2ccccc21 (centres unmarked) [Example 27, 1-Aminobenzocyclobutene.HCl]
- ED50 [1]: < 100 mg/kg
- TD50 ([2]; Table 15): > 100 mg/kg
- RATS MES 50 [3]: <50 mg/kg
- TD50 [4]: > 50 mg/kg

SMILES: COc1ccc2c(c1OC)CC[C@@H]2N.Cl [Example 30, (S)-4,5-Dimethoxy-1-aminoindan, HCl]
- PROTECTION % OF RESPECTIVE CONTROL [5, 9]: 265±284 % OF RESPECTIVE CONTROL
- PROTECTION % OF RESPECTIVE CONTROL [5, 10]: 379±202 % OF RESPECTIVE CONTROL

SMILES: Cl.N[C@@H]1CCc2ccc(O)cc21 [Example 35, (R)-6-Hydroxy-1-aminoindan.HCl]
- PERCENT PROTECTION ([7]; 0.1 mg/kg ip): 25.0%
- PERCENT PROTECTION ([7]; 1.0 mg/kg ip): 37.5%
- PERCENT PROTECTION ([7]; 10.0 mg/kg ip): 37.5%
- SURVIVING CELL IN CULTURE ([8]; 0.005 µM + NMDA 1mM for 3 hours): 60%
- PERCENT PROTECTION ([8]; 0.005 µM + NMDA, Cell Survival minus the NMDA effect): 30%
- EFFECTIVE PROTECTION ([8]; 0.005 µM + NMDA, X x 100/70): 43%
- SURVIVING CELL IN CULTURE ([8]; 0.010 µM + NMDA 1mM for 3 hours): 34%
- PERCENT PROTECTION ([8]; 0.010 µM + NMDA, Cell Survival minus the NMDA effect): 4%
- EFFECTIVE PROTECTION ([8]; 0.010 µM + NMDA, X x 100/70): 6%
- SURVIVING CELL IN CULTURE ([8]; 0.100 µM + NMDA 1mM for 3 hours): 30%
- PERCENT PROTECTION ([8]; 0.100 µM + NMDA, Cell Survival minus the NMDA effect): 0%
- EFFECTIVE PROTECTION ([8]; 0.100 µM + NMDA, X x 100/70): 0%

SMILES: C[C@@H]1Cc2ccccc2[C@H]1N [Example 39, (rac)-trans-2-Methyl-1-aminoindan.HCl]
- ED50 [1]: < 100 mg/kg
- PROTECTION % OF RESPECTIVE CONTROL [5, 9]: 600±213 % OF RESPECTIVE CONTROL
- PROTECTION % OF RESPECTIVE CONTROL [5, 10]: 798±249 % OF RESPECTIVE CONTROL
- TD50 ([2]; Table 15): < 100 mg/kg
- RATS MES 50 [3]: <50 mg/kg
- TD50 [4]: > 50 mg/kg

SMILES: C[C@H]1Cc2ccccc2[C@H]1N [Example 40, (rac)-cis-2-Methyl-1-aminoindan.HCl]
- ED50 [1]: < 100 mg/kg
- PROTECTION % OF RESPECTIVE CONTROL [5, 9]: 374±190 % OF RESPECTIVE CONTROL
- PROTECTION % OF RESPECTIVE CONTROL [5, 10]: 569±173 % OF RESPECTIVE CONTROL
- TD50 ([2]; Table 15): < 100 mg/kg
- RATS MES 50 [3]: <50 mg/kg
- TD50 [4]: > 50 mg/kg

SMILES: C#CCN[C@@H]1CCc2ccccc21.CS(=O)(=O)O [F, (R)-N-propargyl-1-aminoindan mesylate salt]
- ED50 [1]: < 300 mg/kg

SMILES: N[C@H]1CCc2ccc(F)cc21 [K, (S)-6-fluoro-1-aminoindan]
- ED50 [1]: 115 mg/kg
- activity in the MES model in mice ([1]; statement in words): showed activity
- TD50 ([2]; Table 15): < 250 mg/kg
- TD50 ([2]; Table 16): < 250 mg/kg

SMILES: CCCC(C)C1(CC)C(=O)NC(=O)NC1=O (centres unmarked) [Pentobarbitone, sodium pentobarbital, reference compound]
- PROTECTION % OF RESPECTIVE CONTROL ([5]; 20 mg/kg ip 0.5 hour prior to hypoxia): 325±166 % OF RESPECTIVE CONTROL
- PROTECTION % OF RESPECTIVE CONTROL ([5]; 40 mg/kg ip 0.5 hour prior to hypoxia): 446±10.5 % OF RESPECTIVE CONTROL

SMILES: NCCCNCCCCNCCCN [Spermine, spermine, reference compound]
- EFFECTIVE PROTECTION [8, 11]: 74%
- PERCENT PROTECTION [8, 11]: 52%
- SURVIVING CELL IN CULTURE [8, 11]: 82%
